Measured values published in publication PMC12811996, “Exploration and Characterization of the Antimalarial Activity of Pyrimidine‐2,4‐Diamines for which Resistance is Mediated by the ABCI3 Transporter” (Chemmedchem, 2025).
Read-outs that look alike come from different tables or passages of the source.

Experiments:
[1] = system: P. falciparum 3D7 parasites; assay: P. falciparum 3D7 asexual stage parasite LDH assay, 72 h; type: cell-based, Plasmodium falciparum
Description: (§1) To establish the SAR, the antiparasitic activity of the analogs was determined using an assay that measures the lactate dehydrogenase (LDH) activity of asexual P. falciparum 3D7 parasites after 72 h of compound treatment. Mammalian cytotoxicity was monitored using an assay that measures the growth of HepG2 cells using Cell Titer‐Glo after 48 h of compound treatment.
This was performed as previously described, whereby lactate dehydrogenase (LDH) was used as a metabolic marker for parasite growth after a 72‐h incubation period.^[ [14] ^, [30] ^]

physchem [2] = type: physicochemical; conditions: kinetic in PBS, pH 7.4; read-out: Aqueous solubility pH 7.4
Description: (§2) The aqueous solubility and in vitro metabolic stability of selected analogs were assessed to determine if they had favorable parameters (Table 9 ).These analogs were selected based on their potency and the modifications that were incorporated, which led to compounds 55 and 56. […] The high lipophilicity of analogs 1, 11, and 16 was not favorable for metabolic stability.
(§3) This was performed as previously described.^[ [14] ^, [16] ^]

in vitro [3] = type: in vitro ADME
Description: as §2, §3

physchem [4] = type: physicochemical; conditions: shake-flask method; listed as 1
Description: as §3

Albumax = Albumax (Bos taurus, UniProt P02769); assay: in vitro; type: in vitro ADME
[5] = system: W482-resistant P. falciparum 3D7 populations; assay: 72 h Pf LDH assay against W482-selected populations; type: cell-based, Plasmodium falciparum; conditions: for EC50: 72 h Pf LDH assay
Description: To identify the mechanism by which the pyrimidine‐2,4‐diamine class kills the P. falciparum parasite, a forward genetic study was performed on the hit compound W482 (1). We selected W482 (1) as the representative compound from this class, as the forward genetics and phenotype assays were performed in parallel to the medicinal chemistry described in the prior section. […] Genomic DNA was then prepared from these two resistant populations and the parental 3D7 strain and whole genome sequenced.
Figure 3 The activity of W482 (1) against W482‐selected populations and their 3D7 parental. The data are mean and SD from 3 independent 72 h Pf LDH assays.
This was performed as previously described.^[ [14] ^] Briefly, 3D7 wildtype parasites initially exposed to 2 × EC50 (0.3 µM) of W482 (1) and incremental increases in EC50 were applied until 10 × EC50 was reached. The resistant populations were not cloned for whole‐genome sequencing.

PfABCI3-HAreg parasites = assay: Parasite proliferation assay with PfABCI3-HAreg parasites (SYBR Safe, 72 h); type: cell-based, Plasmodium falciparum; conditions: mean ± SEM, n = 4; for IC50: 72 h
Description: Glucosamine (GlcN) (5 mM) was used to reduce the level of pfabci3‐ha. Chloroquine and MMV020746 were used as negative and positive controls, respectively.
Figure 4 Sensitivity of PfABCI3‐HAreg parasites to growth inhibition by chloroquine (a), MMV020746 (b), and W482 (1) (c). Data for parasites in which pfabci3‐ha mRNA was reduced (+ GlcN) are shown in red. GlcN (5 mM) was added to the parasites 48 h prior to the assay and maintained throughout the 72 h assay. The data for parasites expressing a normal level of PfABCI3‐HA (‐GlcN) are shown in black. The data in all panels are from four independent experiments performed on different days. […] Parasites that were treated with or without GlcN (5 mM) were tested concurrently in each assay. TEXT PRINTED IN THE PICTURE: chloroquine: IC50 ± SEM (nM) - GlcN: 12.6 ± 1.1; IC50 ± SEM (nM) + GlcN: 11.9 ± 1.5 | MMV020746: IC50 ± SEM (nM) - GlcN: 104 ± 13; IC50 ± SEM (nM) + GlcN: 32.9 ± 3.9 | W482 (1): IC50 ± SEM (nM) - GlcN: 312 ± 28; IC50 ± SEM (nM) + GlcN: 153 ± 12
Parasite proliferation assays were performed with PfABCI3‐HAreg parasites^[ [19] ^] according to a previously described method, with the fluorescent nucleic acid intercalating dye SYBR Safe used to measure parasite viability.^[ [32] ^, [33] ^] The assays were commenced with cultures consisting of predominantly ring‐stage parasites with a starting hematocrit of 1% and parasitemia of 1%. […] It was shown previously that there is a reduction in pfabci3‐ha mRNA in PfABCI3‐HAreg exposed to 5 mM GlcN and a decrease in parasite viability over time.^[ [19] ^] The level of knockdown of the protein is not known.

[6] = system: P. falciparum 3D7 parasites; assay: Stage of asexual arrest assay; type: cell-based, Plasmodium falciparum
Description: The asexual stage of arrest and parasite reduction ratio (PRR) assays were undertaken on W482 (1) to assess the speed‐of‐asexual kill and the alignment of the pyrimidine‐2,4‐diamine class with the Target Candidate Profiles (TCPs).^[ [27] ^] […] Parasite samples were collected from the culture at 12, 24, 36, 48, and 60 h, and microscopy was performed on Giemsa‐stained thin blood‐smeared samples. These samples were also quantified with flow cytometry using SYBR Green.
(§4) Figure 5 a) Stage of arrest assay showing that W482 (1) blocks ring‐trophozoite transition in the asexual stage of P. falciparum. […] Replicates of Giemsa‐stained blood smears can be found in Figure S4 (Supporting Information). c) Parasite reduction ratio assay conducted at 10 × EC50 of W482 (1). Data represent means and SD of P. falciparum 3D7 parasite survival measuring 3 independent replicates by two‐color flow cytometry using CFDA‐SE and Hoescht 33,342 staining.

[7] = system: Plasmodium falciparum strain 3D7A; assay: Parasite reduction ratio assay; type: cell-based; conditions: for asexual speed-of-kill profile: 10 × EC50, 24 and 48 h treatment, P. falciparum 3D7
Description: as §4
Samples of parasites were collected at 24‐ and 48‐hour timepoints, whereby the compound was washed out and fresh erythrocytes pre‐labeled with intracellular dye were added. Samples were then incubated for 18 days, and then the number of viable parasites was quantified by flow cytometry (Figure 5c).
This assay was conducted following a previously described protocol using the Plasmodium falciparum strain 3D7A, MRA‐151.^[ [19] ^, [28] ^] The human biological samples used in the study were sourced ethically, and their research use was conducted in accordance with the terms of informed consent under an IRB/EC‐approved protocol.

in vitro [8] = type: cell-based; conditions: human; HepG2 viability over 48 h, Cell Titer-Glo; means and SDs, 3 experiments; read-out: HepG2 CC50 (SD)
Description: as §1
This was performed as previously described.^[ [14] ^, [31] ^]

[9] = system: early stage (I–III) gametocytes; conditions: at 2.5 µM; cited from earlier work
[10] = system: late stage (IV‐V) gametocytes; conditions: at 5 µM; cited from earlier work
P. berghei liver stage = conditions: at 50 µM; cited from earlier work
[11] = system: P. falciparum 3D7 parasites; conditions: asexual P. falciparum 3D7; hits from GSK TCAMS screen / MMV Malaria Box; cited from earlier work
hemoglobin catabolism = system: hemoglobin catabolism; parameters: method as in PMID 27572391; conditions: previous metabolomic profiling; cited from earlier work
[12] = Plasmodium falciparum, 3D7, 72 h, P. falciparum 3D7, LDH activity, 72 h exposure, means and SDs, 3 or more experiments, read-out: Pf parasite EC50 (SD)

Albumax, sequence (P02769 25-607): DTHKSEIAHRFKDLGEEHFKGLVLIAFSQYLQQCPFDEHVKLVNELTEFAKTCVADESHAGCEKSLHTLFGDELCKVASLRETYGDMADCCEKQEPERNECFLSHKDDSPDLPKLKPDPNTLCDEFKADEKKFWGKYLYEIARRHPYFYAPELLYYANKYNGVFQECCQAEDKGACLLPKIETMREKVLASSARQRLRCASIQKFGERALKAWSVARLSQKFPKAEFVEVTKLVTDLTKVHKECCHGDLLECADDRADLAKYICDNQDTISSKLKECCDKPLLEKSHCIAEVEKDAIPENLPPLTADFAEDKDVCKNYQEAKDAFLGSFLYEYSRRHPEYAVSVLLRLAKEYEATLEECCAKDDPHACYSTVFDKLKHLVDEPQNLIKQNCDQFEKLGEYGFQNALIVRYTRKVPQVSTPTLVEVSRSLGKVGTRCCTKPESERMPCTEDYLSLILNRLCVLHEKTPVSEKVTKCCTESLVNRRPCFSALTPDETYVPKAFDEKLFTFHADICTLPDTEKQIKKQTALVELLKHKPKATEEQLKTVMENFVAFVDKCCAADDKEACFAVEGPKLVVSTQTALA

3‐Cyclohexyl‐N‐(4‐((4‐(dimethylamino)‐6‐methylpyrimidin‐2‐yl)amino)phenyl)propenamide [W482 (1)]
EC50 ([1]; parental 3D7 in resistance selection study, 72 h Pf LDH assay, 3 independent assays, read-out: EC50 against parental 3D7): 0.197 µM
solubility (physchem [2]): 3.8 µM
Human liver microsomes CLint (in vitro [3]): 174 µL/min/mg
Rat hepatocytes CLint (in vitro [3]): >92 µL/min/10^6 cells
Human liver microsomes CLint (in vitro [3]; listed as 1): > 117 µL/min/mg
eLogD (physchem [4]): 4.6–5.0
Albumax binding % bound (Albumax): 99.1%
EC50 ([5]; population #1, read-out: EC50 against W482-selected population #1): 0.396 µM
EC50 ([5]; population #2, read-out: EC50 against W482-selected population #2): 0.407 µM
fold decreased activity of resistant populations compared to parental 3D7 ([5]; two recovered populations vs parental 3D7): 2 fold
IC50 (PfABCI3-HAreg parasites; PfABCI3-HAreg parasites expressing normal level of PfABCI3-HA (-GlcN)): 0.312 ± 0.028 µM
IC50 (PfABCI3-HAreg parasites; PfABCI3-HAreg parasites with reduced pfabci3-ha mRNA (+ 5 mM GlcN)): 0.153 ± 0.012 µM
fold lower IC50 for +GlcN parasites than -GlcN parasites (PfABCI3-HAreg parasites): 2.0 ± 0.1 fold
asexual stage of arrest ([6]; 10 × EC50 (1.4 µM) for 60 h, Giemsa-stained smears): ring to trophozoite transition stage
percentage of parasitemia over time ([6]; 10 × EC50 (1.4 µM), SYBR Green flow cytometry): declines after 36 h
asexual speed-of-kill profile [7]: fast killing profile
lag phase ([7]; parasite killing profile): 24 h

CCN(CC)c1cc(C)nc(Nc2ccc(NC(=O)CCC3CCCCC3)cc2)n1 [Compound 4]
EC50 [1, 12]: 0.52 µM
CC50 (in vitro [8]): 18 µM

Cc1cc(N2CCCC2)nc(Nc2ccc(NC(=O)CCC3CCCCC3)cc2)n1 [Compound 7, 3‐Cyclohexyl‐N‐(4‐((4‐methyl‐6‐(pyrrolidin‐1‐yl)pyrimidin‐2‐yl)amino)phenyl)propanamide]
EC50 [1, 12]: 0.54 µM
CC50 (in vitro [8]): 12.6 µM

CN(C)c1cc(Nc2ccc(NC(=O)CCC3CCCCC3)cc2)nc2ccccc12 [Compound 22, 3‐Cyclohexyl‐N‐(4‐((4‐(dimethylamino)quinolin‐2‐yl)amino)phenyl)propanamide]
EC50 [1, 12]: 2.47 µM
CC50 (in vitro [8]): 15.9 µM

Cc1cc(N(C)C)nc(Nc2ccc(NC(=O)Nc3ccccc3)cc2)n1 [MMV020243 (2)]
inhibition of early stage (I–III) gametocytes [9]: 67%
inhibition of late stage (IV‐V) gametocytes [10]: 2%
inhibition of P. berghei liver stage development (P. berghei liver stage): 2%

Cc1cc(N2CCCC2)nc(Nc2ccc(NC(=O)CCc3ccccc3)cc2)n1 [MMV396669 (3)]
EC50 [11]: 1.07 µM
inhibition of early stage (I–III) gametocytes [9]: 79%
inhibition of late stage (IV‐V) gametocytes [10]: 21%
inhibition of P. berghei liver stage development (P. berghei liver stage): 3%
metabolomic profile (hemoglobin catabolism): peptide signature consistent with hemoglobin catabolism inhibition

CCc1nc(N)nc(N)c1-c1ccc(Cl)cc1 [Pyrimethamine, reference compound]
asexual speed-of-kill profile [7]: moderate killing rate
